The source of these data is the supplement of paper PMC10307832.

Common to all, as to test: relative viability (nuclei count vs DMSO), 5 days (fraction); higher = more cells survive
Compound in the assay “MLN4924 + Trametinib”: NS(=O)(=O)OC[C@@H]1C[C@@H](n2ccc3c(N[C@H]4CCc5ccccc54)ncnc32)C[C@@H]1O [MLN4924] + CC(=O)Nc1cccc(-n2c(=O)n(C3CC3)c(=O)c3c(Nc4ccc(I)cc4F)n(C)c(=O)c(C)c32)c1 [Trametinib] (partner 0.02 µM)
In short, it runs like this:
(§1)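 A single step with final 0.05% Triton X-100, 1% formaldehyde and 1 ug/ml Hoechst fixed the cells and stained nuclei 5 days after treatment. Lung cancer cell lines in 1536-well plates had been treated by pin tool the day after seeding with one drug alone or a fixed anchor-drug dose plus five library-drug doses (not always all listed) in √10 steps, and nuclei were counted on 4× images. Relative viability is the ratio of nuclei in treated wells to nuclei in vehicle wells, taken as the median of duplicate plates.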

Compound in the assay “Carboplatin + Trametinib”: C1CC(C1)(C(=O)O)C(=O)O.[NH2-].[NH2-].[Pt+2] [Carboplatin] + CC(=O)Nc1cccc(-n2c(=O)n(C3CC3)c(=O)c3c(Nc4ccc(I)cc4F)n(C)c(=O)c(C)c32)c1 [Trametinib] (partner 0.02 µM)
The procedure, abridged: as §1

Compound in the assay “MLN4924 + Alpelisib”: NS(=O)(=O)OC[C@@H]1C[C@@H](n2ccc3c(N[C@H]4CCc5ccccc54)ncnc32)C[C@@H]1O [MLN4924] + Cc1nc(NC(=O)N2CCC[C@H]2C(N)=O)sc1-c1ccnc(C(C)(C)C(F)(F)F)c1 [Alpelisib] (partner 2 µM)
The procedure, abridged:
as §1

Compound in the assay “GSK126 + Luminespib”: CC[C@H](C)N1C=C(C2=C(C=C(C=C21)C3=CN=C(C=C3)N4CCNCC4)C(=O)NCC5=C(C=C(NC5=O)C)C)C [GSK126] + CCNC(=O)c1noc(-c2cc(C(C)C)c(O)cc2O)c1-c1ccc(CN2CCOCC2)cc1 [Luminespib] (partner 0.01 µM)
In short, it runs like this: as §1

As to UMC-11, the relative viability with MLN4924 + Trametinib (first compound 0.04 µM) amounted to 0.487; with MLN4924 + Trametinib (first compound 0.1265 µM), 0.367; with MLN4924 + Trametinib (first compound 0.4 µM), 0.253; with MLN4924 + Trametinib (first compound 1.265 µM), 0.115; with MLN4924 + Trametinib (first compound 4 µM), 0.142; with Carboplatin + Trametinib (first compound 0.08 µM), 0.632. In addition, the relative viability with Carboplatin + Trametinib (first compound 0.253 µM) came out at 0.706; with Carboplatin + Trametinib (first compound 0.8 µM), 0.738; with Carboplatin + Trametinib (first compound 2.53 µM) it was 0.929; with Carboplatin + Trametinib (first compound 8 µM), 0.532; with MLN4924 + Alpelisib (first compound 0.04 µM) it was 0.59; with MLN4924 + Alpelisib (first compound 0.1265 µM), 0.249. Besides, the relative viability worked out at 0.254 with MLN4924 + Alpelisib (first compound 0.4 µM); 0.128 with MLN4924 + Alpelisib (first compound 1.265 µM); 0.13 with MLN4924 + Alpelisib (first compound 4 µM); 1.19 in the assay with GSK126 + Luminespib (first compound 0.08 µM); 1.07 with GSK126 + Luminespib (first compound 0.253 µM); 1.04 with GSK126 + Luminespib (first compound 0.8 µM). The values for the relative viability with GSK126 + Luminespib (first compound 2.53 µM) and with GSK126 + Luminespib (first compound 8 µM) were 1.07 and 1.31, respectively.
